# Measured values published in article PMC12040169 (PLOS Biology, 2025).
# Assay: in vitro
# Details: human, hela cells, % viability
row,Structure (SMILES),"viability at 28.5 h, 10 µM [%]"
1,COc1ccccc1C1CC(c2ccccc2)=NN1C(=O)CCC(=O)O (centres unmarked) [CBK287088],83.4
2,CC(C)(C)n1ncc2c(=O)n(CC(=O)Nc3ccccc3)cnc21 [CBK287541],115
3,COc1cccc(-n2nnc3c(SCC(N)=O)ncnc32)c1 [CBK287543],75
4,CC(C)c1ccc2oc(-c3ccc(NC(=S)NC(=O)c4cncc(Br)c4)cc3)nc2c1 [CBK264913],106
5,CC(C)(C)OC(=O)N1CCC[C@@H]([C@H](O)c2nccs2)C1 [CBK284283],81
6,COC1C(O)C(CO)OC1n1cnc2cnc(N)nc21 (centres unmarked) [CBK201290],84.9
7,COc1cc(NC(=O)c2ccc3c(c2)C(=O)N(Cc2ccccc2)C3=O)c(C(=O)O)cc1OC [CBK266544],106
8,Cc1cc(Cc2cnc(NC(=O)c3ccncc3)s2)ccc1Br [CBK298304],106
9,N#Cc1ccc(-n2nc(-c3ccccc3)c3ccccc3c2=O)c([N+](=O)[O-])c1 [CBK132567],96.6
10,COC(=O)CNC(=O)c1nc(SC)ncc1Cl [CBK057651],107
11,N#Cc1ccc(COc2cccc(Cl)c2Cl)cc1 [CBK002611],92.5
12,Cc1ccc(NS(=O)(=O)c2cc(C(=O)Nc3ccc(S(=O)(=O)N4CCCC4)cc3)ccc2C)cc1 [CBK268784],89.8
13,N#Cc1cccc(CSc2nnc(-c3ccccc3O)n2Cc2ccccc2)c1 [CBK267395],85.8
14,COc1cccc([C@H]2CC[C@H](N(CCN(C)C)C(=O)Nc3cc(F)ccc3F)CC2)c1OC [CBK050184],113
15,COc1ccccc1-c1nccnc1OCCn1cnc2c1c(=O)n(C)c(=O)n2C [CBK106816],109
16,Cc1ccc(SC(C)C(=O)Nc2nc[nH]n2)cc1 (centres unmarked) [CBK268638],107
17,Cc1nn(C)cc1-c1cncn1C(C)Cc1c(C)nn(C)c1C (centres unmarked) [CBK281786],115
18,Cc1cc(-c2ccc(=O)n(CCNC(=O)C3CCC3)n2)c(C)o1 [CBK284520],110
19,Cc1nn(C)c(C)c1CC(=O)N1CCc2c(sc3ncnc(N)c23)C1 [CBK306065],86.9
20,CCOc1ccccc1NC(=O)CN(C)S(=O)(=O)c1ccc2ccccc2c1 [CBK266874],101
21,NC[C@H]1CC[C@H](C(=O)N2CCC(c3ccncc3)CC2)CC1 [CBK283332],110
22,c1ccc(-c2noc(CN3CCN(C(c4ccccc4)c4ccccc4)CC3)n2)cc1 [CBK265844],101
23,CCCCN(/C=N/S(=O)(=O)c1ccccc1)CCCC [CBK026576],92.2

row,Structure (SMILES),"viability at 28.5 h, 10 µM [%]"
1,O=C(NCCNc1ccc(Cl)cc1[N+](=O)[O-])c1c(F)cccc1F [CBK269643],97.6
2,CCc1cn(C[C@H](NC(=O)C2CCC2)C(=O)O)c(=O)[nH]c1=O [CBK289663],97.1
3,COc1ccc(S(=O)(=O)Nc2ccc3oc4c(c3c2)CC(C)CC4)cc1[N+](=O)[O-] (centres unmarked) [CBK266131],94.3
4,Cc1ccc(Nc2cc(-c3cccc4cccnc34)ncn2)cc1NS(C)(=O)=O [CBK091152],92.4
5,COCCN(C(=S)Nc1ccc(OC)cc1)C(C)c1cccnc1 (centres unmarked) [CBK294471],83.7
6,CC(=O)N(C)c1nc(-c2ccccc2)ccc1C(=O)NCc1ccco1 [CBK106334],99.3
7,CC(C)c1ccc(C(C)NC(=O)Cn2cccc(C(=O)NC3CCCCC3)c2=O)cc1 (centres unmarked) [CBK286044],119
8,CC(C)NC(=O)N1CC[C@H](c2nc3ncccc3[nH]2)C1 [CBK289369],101
9,COc1cc(Br)c(/C=C(/C#N)C(=O)Nc2ccc(O)cc2)cc1OC [CBK262733],79.9
10,CCn1cc(CN(CCCn2ccnc2)Cc2cccc(F)c2)cn1 [CBK283124],107
11,O=C(NCCc1cccs1)Nc1ccc(F)c(F)c1 [CBK043951],87
12,O=C1CC[C@@H](NCc2ccccc2O)[C@H](c2cc(F)cc(F)c2)N1 [CBK283126],107
13,COc1ccc(S(=O)(=O)N2CCC(C(=O)N(C)C(c3cnccn3)c3ccccc3C)CC2)cc1 (centres unmarked) [CBK060210],99.3
14,CC(C)(C)NC(=O)Cn1nc(-c2cc3c(s2)CCC3)oc1=O [CBK284714],101
15,Cc1cc(S(=O)(=O)Nc2cc(C3CC3)nn2C)c(C)cc1Cl [CBK043994],111
16,COCCCNC(=O)C1CCCN(c2nc3c(-c4ccc(C)cc4)csc3c(=O)[nH]2)C1 (centres unmarked) [CBK215548],83.1
17,CCN(CC)C(=O)COc1ccc(NC(=O)Nc2cc(C)on2)cc1Cl [CBK305734],104
18,COc1ccc(S(=O)(=O)N(C)CC(=O)Nc2cccc(F)c2)cc1Cl [CBK267882],90
19,COC(=O)c1ccc2c(c1)C(=O)N(c1ccc(C(=O)OCC(C)C)cc1)C2=O [CBK156802],92.1
20,O=C(O)c1ccc(NS(=O)(=O)c2cc(C(=O)O)ccc2Br)cc1 [CBK113164],106
21,O=S(=O)(c1ccc(F)cc1)N1CCCC1c1cccc(Cc2cccc(F)c2)n1 (centres unmarked) [CBK286209],93.9
22,CCn1cc(S(=O)(=O)Nc2cccc(CCCC(=O)O)c2)cn1 [CBK304717],102
23,Cc1cc(NC(=O)CSc2nnc(-c3ccccc3)o2)no1 [CBK287389],96.2

row,Structure (SMILES),"viability at 28.5 h, 10 µM [%]"
1,O=C(OCc1ccccc1)N1CCN(c2ccccc2)CC1 [CBK200241],116
2,O=C1NCC2(C/C=C/CCOc3ccccc31)CCN(C(=O)c1ccncc1)CC2 [CBK292018],105
3,NC(=NOC(=O)c1cccc(Br)c1)c1ccccc1 [CBK261703],92.7
4,CCOc1ccc(-c2ncncc2-c2ccccc2)c(O)c1 [CBK288111],86.4
5,Clc1ccc(-c2nc(-c3ccncc3)no2)c(Cl)c1 [CBK262615],83.6
6,c1coc(-c2cc3ncc4c(n3n2)CC2CCC4N2)c1 (centres unmarked) [CBK284381],84.7
7,O=S1(=O)CCN(CC2COc3ccccc3O2)CC1 (centres unmarked) [CBK074789],88.5
8,O=C(NC1CC2(CCOCC2)Oc2ccccc21)c1ccco1 (centres unmarked) [CBK285378],98
9,CS(=O)(=O)Nc1cc(-c2noc([C@@H]3CCCN3C3CCOCC3)n2)ccn1 [CBK288887],81.8
10,O=C(NC(c1ccc(Cl)cc1)c1ccsc1)C1CCN(CCCN2C(=O)CC3CCCCC3C2=O)CC1 (centres unmarked) [CBK147974],85.3
11,COc1cc(/C=C/C(=O)O)ccc1OCC(=O)Nc1ccccc1 [CBK265695],101
12,CCCN1CCC(NC(=O)Cn2c(C3CC3)nc3ccccc32)CC1 [CBK304917],89.2
13,O=C(Nc1ccc(S(=O)(=O)N2CCCCC2)cc1)c1ccc(CN2CCOCC2)cc1 [CBK264002],111
14,Cc1csc2c(C3CCN(C(=O)c4cnn(C)c4)CC3)nc(C)n12 [CBK285250],89.7
15,CN(CC(=O)NCc1ccco1)C1CCCCC1 [CBK304471],85.6
16,Cc1nc(SCc2ccccc2)nc(O)c1CC(=O)O [CBK264203],96.8
17,Cc1nn(C)cc1-c1cncn1Cc1ccccc1CN(C)C [CBK281985],102
18,Cc1cnn(CC(=O)NC(Cc2ccsc2)c2nccs2)c1 (centres unmarked) [CBK282825],105
19,O=C(Cc1ccc(F)cc1)N1CC[C@@H](c2ccccc2)[C@H](O)C1 [CBK283714],84.5
20,Cc1nnc2ncc(-c3ccccc3C(=O)N(C(C)C)C(C)C)cn12 [CBK307393],94.7
21,O=C(c1cccc(C(F)(F)F)c1)N1CCN(C(=O)c2ccc3c(c2)CCC3)CC1 [CBK298300],91.5
22,COc1ccccc1CCCNC(=O)c1ccc2nc(C)[nH]c2c1 [CBK283258],84.7
23,Cc1ccc(C)c(NC(=O)C(Cc2ccccc2)N2C(=O)c3cc(Cl)c(Cl)cc3C2=O)c1 (centres unmarked) [CBK264232],109

row,Structure (SMILES),"viability at 28.5 h, 10 µM [%]"
1,c1ccc(N2CCN(Cc3cncn3C3CCCCC3)CC2)nc1 [CBK307345],109
2,Cc1cc(NS(=O)(=O)c2ccc(NC(=O)Nc3ccc4c(c3)OCO4)cc2)no1 [CBK268139],104
3,COc1ccc(S(=O)(=O)N(CC(=O)O)c2ccc(Cl)cc2)cc1OC [CBK267836],97.5
4,O=C1c2ccccc2C(=O)N1CCOc1nccnc1-c1ccsc1 [CBK106760],90.4
5,C(=C\c1ccccc1)/CN1CCN(CCc2ccccc2)CC1 [CBK261893],93.4
6,CN(C)Cc1cc(C[C@@H]2C[C@H](NC(=O)c3ccnc(Cl)c3)C2(C)C)no1 [CBK289311],89.6
7,Nc1nc(=O)c2cnc3ccc(F)cc3c2s1 [CBK291195],111
8,CCOC(=O)c1ccccc1NC(=O)N(Cc1ccc2ccccc2c1)CC1CCNCC1 [CBK049769],98.3
9,O=C1NC2(CCc3ccccc31)CCN(C(=O)c1ccncc1)C2 (centres unmarked) [CBK283336],90.9
10,O=S(=O)(Cc1ccccc1Cl)NCCN1CCOCC1 [CBK269171],102
11,CCOC(=O)C1CCN(S(=O)(=O)c2ccccc2C#N)CC1 [CBK051111],93.6
12,Cc1[nH]c(=O)[nH]c(=S)c1C(=O)Nc1ccc2c(c1)OCO2 [CBK115519],100
13,COc1cccc(CN2CCC3(CC2)c2[nH]c4ccc(OCc5ccccc5)cc4c2CCN3C=O)c1 [CBK040462],101
14,CSCCC(=O)NCc1c(-c2ccccc2)noc1C [CBK144092],85.9
15,COc1ccc(NCC(=O)N/N=C(\C)c2ccccc2O)cc1 [CBK263887],86.3
16,C#CCNC(=O)N1CCC(c2c[nH]c3ccccc23)CC1 [CBK305034],87.4
17,CC(=O)NCCCCCC(=O)Nc1ccc(Cl)cn1 [CBK091341],92.3
18,COc1ncc(-c2nccnc2NCc2cccc(Cl)c2)c(OC)n1 [CBK037990],90
19,O=C(CSc1nc2ccccc2[nH]1)c1ccccc1 [CBK261298],92.9
20,COc1cc(C=C2C(=O)OC(C)(C(C)(C)C)OC2=O)cc(Br)c1OC (centres unmarked) [CBK028893],96.5
